Patent publication US20110152225A1, “PPAR-Gamma Agonists for the Induction of Cationic Antimicrobial Peptide Expression as Immunoprotective Stimulants” (priority 2007, published 2011)

Assays:
HD-5 = HD-5 defensin gene expression in intestinal epithelial cells (Caco-2), quantitative PCR; assay type: cell-based, human; settings: for activation of HD-5, as determined by quantitative PCR analysis: Caco-2 cells
Experimental: (§1) Cultured intestinal epithelial cell lines, namely Caco-2 (of human origin) and ICcl2 (of mice origin), were treated with the GSK-3 inhibitor LiCl ([…]) or the phosphatase inhibitor calyculin (50 nM) followed or not by stimulation with the PPAR-gamma agonist such as rosiglitazone (1 microM).
(§2) The expression of defensin and known target genes of both Wnt and PPAR-gamma signaling pathways were investigated by quantitative real-time PCR. The activation of GSK3, beta-catenin, NF-kappaB, ERK1/2, SAPK/JNK and p38 was measured by specific immunoblotting.

hBD1 = hBD1 defensin mRNA expression in colonic epithelial Caco-2 cells; assay type: cell-based, human; settings: stimulated for 24 h
Source text: 5-ASA was purchased at Sigma-Aldrich (St Quentin Fallavier, France). Rosiglitazone was synthesized in the laboratory according to standard procedures. The racemic compound 34 and the two enantiomers of the compound, 34-E1 and 34-E2 were provided by Giuliani SpA (Milano, Italy). Compound were re-suspended in DMEM medium (Gibco) and adjusted at pH=7 if necessary with 10N NaOH.
The colon carcinoma cell line Caco-2 (ATCC HTB-39) was routinely grown in DMEM supplemented respectively with 10% or 20% heat-FCS, and antibiotics. Cells were grown in monolayers, incubated at 37° C. in 5% CO2 and 95% relative humidity.
Cell were stimulated by 5-ASA, R34, 34-E1 and 34-E2 for 24 h. Total RNA was isolated from cells using Rneasy kit (Macherey Nagel, Hoerdt, France) according to the manufacturer's instructions. RNA quantification was performed using spectrophotometry. After treatment at 37° C. for 30 min with 20-50 units of RNase-free DNase I (Roche Diagnostics Corporation, Indianapolis, Ind., USA), oligo-dT primers (Roche Diagnostics Corporation, Indianapolis, USA) were used to synthesize single-stranded cDNA. mRNAs were quantified using SYBR green Master Mix (Applera, Courtaboeuf, France) with human specific oligonucleotides for hBD1(S:5′-[…]-3′; AS:5′-TTgTCTGAGATGGCCTCAggTggTAAC-3′) in a GeneAmp Abiprism 7000 (Applera, Courtaboeuf, France). In each assay, calibrated and no-template controls were included. Each sample was run in triplicate. SYBR green dye intensity was analyzed using the Abiprism 7000 SDS software (Applera, Courtaboeuf, France). All results were normalized to the unaffected housekeeping gene of human β-actin (S:5′-TCACCCACACTgTgCCCATCTACg-3′; AS:5′-CAgCggAACCgCTCATTgCCAATg-3′).

LL37 = LL37 (defensin) mRNA expression in colon of healthy mice; assay type: in vivo; settings: for induction of defensin expression / potency in defensin expression induction compared to 5-ASA: conclusion on the in vitro and in vivo results; for colon defensin (LL37) mRNA expression: healthy mice (n=5), enema during 10 days, 5-ASA 30 mM, R34, E1 and E2 1 mM
Experimental: […] Post-mortem, total RNA was isolated from whole mice colonic tissues using Rneasy kit (Macherey Nagel, Hoerdt, France) according to the manufacturer's instructions. RNA quantification was performed using spectrophotometry. After treatment at 37° C. for 30 min with 20-50 units of RNase-free DNase I (Roche Diagnostics Corporation, Indianapolis, Ind., USA), oligo-dT primers (Roche Diagnostics Corporation, Indianapolis, USA) were used to synthesize single-stranded cDNA. mRNAs were quantified using SYBR green Master Mix (Applera, Courtaboeuf, France) with mouse specific oligonucleotides for LL37(S:5′-gCTgATTCTTTTgACATCAgCTgTAA-3′ AS:5′-gCCAgCCgggAAATTTTCT-3′) in a GeneAmp Abiprism 7000 (Applera, Courtaboeuf, France). In each assay, calibrated and no-template controls were included. Each sample was run in triplicate. SYBR green dye intensity was analyzed using the Abiprism 7000 SDS software (Applera, Courtaboeuf, France). All results were normalized to the unaffected housekeeping gene β-actin (S:5′-gggTCAgAAggATTCCTATg-3′; AS:5′ ggTCTCAAACATgATCTggg-3′).

PPAR-gamma = PPAR-gamma mRNA expression in colon of healthy mice; assay type: in vivo; settings: healthy mice (n=5); enema during 10 days; 5-ASA 30 mM, R34, E1 and E2 1 mM
[1] = test system: Clostridium bacterial cultures; settings: agar plates in aerobic and anaerobic conditions; U.S. Pat. No. 6,326,364; cited from earlier work
[2] = test system: colonies of Lactobacillus, Enterococcus or Bacteroides; settings: U.S. Pat. No. 6,326,364; cited from earlier work
cyclin-D1 = assay: Expression of Wnt/Tcf/beta-catenin target gene cyclin-D1, quantitative real-time PCR; assay type: cell-based; settings: stimulation by both calyculin and rosiglitazone
Experimental: as §1, §2

beta-catenin = assay: Stability of beta-catenin, immunoblotting; assay type: cell-based; settings: stimulation by both calyculin and rosiglitazone
Experimental: as §1, §2

Molecule	activation of HD-5, as determined by quantitative PCR analysis (HD-5)	expression of hBD1 (human defensin-1) (hBD1)	induction of defensin expression (LL37)	colon defensin (LL37) mRNA expression (LL37)	colon PPARy mRNA expression (PPAR-gamma)	also measured
CCOC(Cc1ccc(N)cc1)C(=O)O (racemic) [Compound 39, (±)-2-ethoxy-3-(4′-aminophenyl)propionic acid]	activates HD-5	–	–	–	–	–
CCOC(Cc1cccc(N)c1)C(=O)O (racemic) [Compound 40, (±)-2-ethoxy-3-(3′-aminophenyl)propionic acid]	activates HD-5	–	–	–	–	–
COC(Cc1ccc(N)cc1)C(=O)O (racemic) [Compound R34, (±)-2-methoxy-3-(4′-aminophenyl)propionic acid]	–	induce the expression of hBD1	induction of defensin expression	induced	induced	–
Nc1ccc(O)c(C(=O)O)c1 [Compound 5-ASA, 5-aminosalycilate, reference compound]	activates HD-5	induce the expression of hBD1	induction of defensin expression	induced	induced	antimicrobial effect against Clostridium bacterial cultures [1]: inhibitory effects; antimicrobial effect against colonies of Lactobacillus, Enterococcus or Bacteroides [2]: No effect
COc1ccc(N)cc1C(=O)NO [Compound 14, 5-amino-N-hydroxy-2-methoxybenzamide]	activates HD-5	–	–	–	–	–
CO[C@@H](Cc1cccc(N)c1)C(=O)O [Compound 34-E1, (+) 2-S-methoxy-3-(3-aminophenyl)propionic acid]	–	–	induction of defensin expression	induced	induced	potency in defensin expression induction compared to 5-ASA (LL37): higher potency
CO[C@H](Cc1cccc(N)c1)C(=O)O [Compound 34-E2, (−) 2-R-methoxy-3-(3-aminophenyl)propionic acid]	–	induce the expression of hBD1	induction of defensin expression	induced	induced	potency in defensin expression induction compared to 5-ASA (LL37): higher potency; gut defensin expression induction (LL37; summary statement referring to FIGS. 8 & 9): particularly effective
[Cl-].[Li+] [LiCl, reference compound]	–	–	–	–	–	rosiglitazone-induced defensin gene expression (HD-5; co-stimulation with LiCl): blocked
calyculin	–	–	–	–	–	antimicrobial (defensin) gene expression induced by PPAR-gamma activators following co-stimulation (HD-5; co-stimulation by calyculin with rosiglitazone and other PPAR-gamma activators): synergized; expression of Wnt/Tcf/beta-catenin target gene cyclin-D1 (cyclin-D1): markedly decreased; stability of the beta-catenin (beta-catenin): markedly decreased
